Key:
[1] = system: Tyrosine-protein kinase ABL1 (Homo sapiens), P00519 [Y253F]; conditions: Compound concentration 1000.0 nM
[2] = molecular target: Tyrosine-protein kinase ABL1 (Homo sapiens) (UniProt P00519); conditions: Compound concentration 1000.0 nM
[3] = molecular target: Activin receptor type-1B (Homo sapiens) (UniProt P36896); conditions: Compound concentration 1000.0 nM
[4] = molecular target: Activin receptor type-2A (Homo sapiens) (UniProt P27037); conditions: Compound concentration 1000.0 nM
[5] = molecular target: ALK tyrosine kinase receptor (Homo sapiens) (UniProt Q9UM73); conditions: Compound concentration 1000.0 nM
[6] = molecular target: Cyclin-dependent kinase 19 (Homo sapiens) (UniProt Q9BWU1); conditions: Compound concentration 1000.0 nM
[7] = molecular target: Cyclin-dependent kinase 3 (Homo sapiens) (UniProt Q00526); conditions: Compound concentration 1000.0 nM
[8] = molecular target: Cyclin-dependent kinase 4 (Homo sapiens) (UniProt P11802); conditions: Compound concentration 1000.0 nM
[9] = molecular target: Cyclin-dependent kinase-like 2 (Homo sapiens) (UniProt Q92772); conditions: Compound concentration 1000.0 nM
[10] = molecular target: Serine/threonine-protein kinase 17A (Homo sapiens) (UniProt Q9UEE5); conditions: Compound concentration 1000.0 nM
[11] = molecular target: Dual specificity tyrosine-phosphorylation-regulated kinase 2 (Homo sapiens) (UniProt Q92630); conditions: Compound concentration 1000.0 nM
[12] = molecular target: Ephrin type-A receptor 1 (Homo sapiens) (UniProt P21709); conditions: Compound concentration 1000.0 nM
[13] = molecular target: Mitogen-activated protein kinase 6 (Homo sapiens) (UniProt Q16659); conditions: Compound concentration 1000.0 nM
[14] = molecular target: Focal adhesion kinase 1 (Homo sapiens) (UniProt Q05397); conditions: Compound concentration 1000.0 nM
[15] = molecular target: Tyrosine-protein kinase Fer (Homo sapiens) (UniProt P16591); conditions: Compound concentration 1000.0 nM
[16] = system: Fibroblast growth factor receptor 3 (Homo sapiens), P22607 [G697C]; conditions: Compound concentration 1000.0 nM
[17] = system: Receptor-type tyrosine-protein kinase FLT3 (Homo sapiens), P36888 [D835V]; conditions: Compound concentration 1000.0 nM
[18] = molecular target: Glycogen synthase kinase-3 beta (Homo sapiens) (UniProt P49841); conditions: Compound concentration 1000.0 nM
[19] = molecular target: Tyrosine-protein kinase HCK (Homo sapiens) (UniProt P08631); conditions: Compound concentration 1000.0 nM
[20] = molecular target: Inhibitor of nuclear factor kappa-B kinase subunit epsilon (Homo sapiens) (UniProt Q14164); conditions: Compound concentration 1000.0 nM
[21] = molecular target: Tyrosine-protein kinase ITK/TSK (Homo sapiens) (UniProt Q08881); conditions: Compound concentration 1000.0 nM
[22] = system: Mast/stem cell growth factor receptor Kit (Homo sapiens), P10721 [A829P]; conditions: Compound concentration 1000.0 nM
[23] = molecular target: Serine/threonine-protein kinase STK11 (Homo sapiens) (UniProt Q15831); conditions: Compound concentration 1000.0 nM
[24] = molecular target: Serine/threonine-protein kinase 10 (Homo sapiens) (UniProt O94804); conditions: Compound concentration 1000.0 nM
[25] = molecular target: Leukocyte tyrosine kinase receptor (Homo sapiens) (UniProt P29376); conditions: Compound concentration 1000.0 nM
[26] = molecular target: Mitogen-activated protein kinase kinase kinase 4 (Homo sapiens) (UniProt Q9Y6R4); conditions: Compound concentration 1000.0 nM
[27] = molecular target: Mitogen-activated protein kinase kinase kinase kinase 5 (Homo sapiens) (UniProt Q9Y4K4); conditions: Compound concentration 1000.0 nM
[28] = molecular target: Serine/threonine-protein kinase MARK1 (Homo sapiens) (UniProt Q9P0L2); conditions: Compound concentration 1000.0 nM
[29] = molecular target: Serine/threonine-protein kinase MRCK beta (Homo sapiens) (UniProt Q9Y5S2); conditions: Compound concentration 1000.0 nM
[30] = molecular target: Serine/threonine-protein kinase 38-like (Homo sapiens) (UniProt Q9Y2H1); conditions: Compound concentration 1000.0 nM
[31] = molecular target: Mitogen-activated protein kinase 12 (Homo sapiens) (UniProt P53778); conditions: Compound concentration 1000.0 nM
[32] = molecular target: Phosphatidylinositol 4-phosphate 3-kinase C2 domain-containing subunit beta (Homo sapiens) (UniProt O00750); conditions: Compound concentration 1000.0 nM
[33] = molecular target: Protein kinase C iota type (Homo sapiens) (UniProt P41743); conditions: Compound concentration 1000.0 nM
[34] = system: Proto-oncogene tyrosine-protein kinase receptor Ret (Homo sapiens), P07949 [M918T]; conditions: Compound concentration 1000.0 nM
[35] = molecular target: Receptor-interacting serine/threonine-protein kinase 1 (Homo sapiens) (UniProt Q13546); conditions: Compound concentration 1000.0 nM
[36] = molecular target: Receptor-interacting serine/threonine-protein kinase 2 (Homo sapiens) (UniProt O43353); conditions: Compound concentration 1000.0 nM
[37] = molecular target: Ribosomal protein S6 kinase alpha-2 (Homo sapiens) (UniProt Q15349); conditions: Compound concentration 1000.0 nM
[38] = molecular target: TGF-beta receptor type-2 (Homo sapiens) (UniProt P37173); conditions: Compound concentration 1000.0 nM
[39] = molecular target: High affinity nerve growth factor receptor (Homo sapiens) (UniProt P04629); conditions: Compound concentration 1000.0 nM
[40] = molecular target: NT-3 growth factor receptor (Homo sapiens) (UniProt Q16288); conditions: Compound concentration 1000.0 nM
[41] = molecular target: Testis-specific serine/threonine-protein kinase 3 (Homo sapiens) (UniProt Q96PN8); conditions: Compound concentration 1000.0 nM
[42] = molecular target: Non-receptor tyrosine-protein kinase TYK2 (Homo sapiens) (UniProt P29597); conditions: Compound concentration 1000.0 nM
[43] = molecular target: Serine/threonine-protein kinase 32C (Homo sapiens) (UniProt Q86UX6); conditions: Compound concentration 1000.0 nM
[44] = molecular target: Tyrosine-protein kinase ZAP-70 (Homo sapiens) (UniProt P43403); conditions: Compound concentration 1000.0 nM
[45] = molecular target: Sigma intracellular receptor 2 (Homo sapiens, UniProt Q5BJF2); conditions: Compound concentration 10.0 uM
Sequence of Sigma intracellular receptor 2 (Q5BJF2 whole entry): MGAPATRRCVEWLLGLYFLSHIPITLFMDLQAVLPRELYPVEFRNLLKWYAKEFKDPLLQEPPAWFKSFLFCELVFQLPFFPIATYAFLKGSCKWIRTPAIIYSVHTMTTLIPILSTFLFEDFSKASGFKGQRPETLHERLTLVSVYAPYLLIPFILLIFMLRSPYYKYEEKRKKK

Sequence of Ephrin type-A receptor 1 (Homo sapiens) (P21709 whole entry): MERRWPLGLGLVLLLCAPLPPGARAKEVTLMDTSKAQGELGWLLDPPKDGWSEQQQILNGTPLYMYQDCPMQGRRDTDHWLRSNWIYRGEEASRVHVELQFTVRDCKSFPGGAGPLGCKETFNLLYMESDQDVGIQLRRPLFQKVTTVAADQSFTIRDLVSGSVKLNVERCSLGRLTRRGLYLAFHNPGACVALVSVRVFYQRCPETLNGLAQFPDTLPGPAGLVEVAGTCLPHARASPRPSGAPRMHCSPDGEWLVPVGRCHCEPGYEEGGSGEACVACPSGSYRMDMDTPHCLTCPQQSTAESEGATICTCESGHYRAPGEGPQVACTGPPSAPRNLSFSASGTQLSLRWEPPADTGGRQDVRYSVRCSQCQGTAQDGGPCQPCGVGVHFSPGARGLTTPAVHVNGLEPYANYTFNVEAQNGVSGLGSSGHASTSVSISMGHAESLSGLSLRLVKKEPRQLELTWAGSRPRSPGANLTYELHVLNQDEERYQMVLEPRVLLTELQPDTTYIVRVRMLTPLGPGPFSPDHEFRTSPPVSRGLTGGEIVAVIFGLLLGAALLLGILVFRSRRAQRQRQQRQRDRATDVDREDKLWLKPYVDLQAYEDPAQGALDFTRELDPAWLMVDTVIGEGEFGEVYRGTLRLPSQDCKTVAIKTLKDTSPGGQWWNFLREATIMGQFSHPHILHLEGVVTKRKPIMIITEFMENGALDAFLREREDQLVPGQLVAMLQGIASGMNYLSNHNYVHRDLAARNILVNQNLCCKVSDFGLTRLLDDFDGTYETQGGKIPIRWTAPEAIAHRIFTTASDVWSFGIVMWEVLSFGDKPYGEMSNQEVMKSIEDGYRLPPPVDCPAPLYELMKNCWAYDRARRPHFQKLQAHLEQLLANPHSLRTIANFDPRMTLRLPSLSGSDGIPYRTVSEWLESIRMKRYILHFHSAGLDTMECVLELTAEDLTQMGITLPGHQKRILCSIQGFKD
Sequence of Serine/threonine-protein kinase STK11 (Homo sapiens) (Q15831 whole entry): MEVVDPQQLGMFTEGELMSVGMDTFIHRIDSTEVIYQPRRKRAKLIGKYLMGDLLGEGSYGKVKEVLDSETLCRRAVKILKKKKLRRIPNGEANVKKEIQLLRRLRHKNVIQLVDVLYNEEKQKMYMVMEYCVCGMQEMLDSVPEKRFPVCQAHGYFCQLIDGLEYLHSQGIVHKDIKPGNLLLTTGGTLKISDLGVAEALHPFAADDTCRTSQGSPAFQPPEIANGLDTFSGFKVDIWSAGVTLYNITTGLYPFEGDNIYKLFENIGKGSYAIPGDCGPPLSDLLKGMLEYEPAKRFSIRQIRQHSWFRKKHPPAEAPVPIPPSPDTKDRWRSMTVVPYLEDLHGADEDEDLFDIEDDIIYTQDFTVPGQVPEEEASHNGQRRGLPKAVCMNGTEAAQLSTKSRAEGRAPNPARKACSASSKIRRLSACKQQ
Sequence of NT-3 growth factor receptor (Homo sapiens) (Q16288 32-839 limits assumed): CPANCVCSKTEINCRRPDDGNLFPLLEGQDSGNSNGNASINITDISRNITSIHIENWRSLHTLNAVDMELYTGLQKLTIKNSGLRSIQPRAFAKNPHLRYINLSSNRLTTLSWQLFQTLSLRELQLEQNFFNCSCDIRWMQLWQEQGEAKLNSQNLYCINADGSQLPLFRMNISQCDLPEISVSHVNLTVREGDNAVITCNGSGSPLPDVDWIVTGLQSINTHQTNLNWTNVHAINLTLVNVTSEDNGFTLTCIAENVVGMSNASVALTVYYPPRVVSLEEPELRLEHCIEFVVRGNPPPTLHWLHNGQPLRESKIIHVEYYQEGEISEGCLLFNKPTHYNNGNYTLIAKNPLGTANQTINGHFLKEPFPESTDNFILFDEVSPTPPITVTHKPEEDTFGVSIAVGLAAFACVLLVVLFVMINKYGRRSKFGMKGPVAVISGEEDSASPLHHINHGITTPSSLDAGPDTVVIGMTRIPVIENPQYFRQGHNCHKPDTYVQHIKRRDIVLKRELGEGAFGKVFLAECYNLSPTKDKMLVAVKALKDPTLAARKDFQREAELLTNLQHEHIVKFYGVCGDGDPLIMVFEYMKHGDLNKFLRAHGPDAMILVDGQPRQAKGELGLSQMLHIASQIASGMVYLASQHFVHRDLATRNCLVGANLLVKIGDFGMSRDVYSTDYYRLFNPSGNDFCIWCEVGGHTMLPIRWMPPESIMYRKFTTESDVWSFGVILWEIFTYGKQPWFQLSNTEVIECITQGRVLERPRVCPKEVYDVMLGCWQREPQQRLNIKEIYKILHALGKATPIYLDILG
Sequence of Cyclin-dependent kinase 19 (Homo sapiens) (Q9BWU1 whole entry): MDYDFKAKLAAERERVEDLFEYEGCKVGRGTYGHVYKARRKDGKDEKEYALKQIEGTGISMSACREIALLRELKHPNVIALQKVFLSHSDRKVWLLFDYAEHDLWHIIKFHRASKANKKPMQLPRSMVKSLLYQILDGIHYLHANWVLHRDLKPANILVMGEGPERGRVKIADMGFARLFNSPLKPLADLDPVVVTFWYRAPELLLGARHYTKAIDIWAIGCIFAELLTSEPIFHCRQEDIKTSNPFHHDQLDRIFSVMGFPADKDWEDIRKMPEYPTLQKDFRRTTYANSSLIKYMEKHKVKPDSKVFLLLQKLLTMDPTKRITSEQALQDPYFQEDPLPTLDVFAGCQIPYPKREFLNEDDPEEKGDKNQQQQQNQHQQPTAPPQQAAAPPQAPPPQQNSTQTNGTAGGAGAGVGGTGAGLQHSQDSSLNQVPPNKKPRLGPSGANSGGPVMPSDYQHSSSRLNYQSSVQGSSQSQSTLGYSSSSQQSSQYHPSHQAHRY
Sequence of Tyrosine-protein kinase ZAP-70 (Homo sapiens) (P43403 whole entry): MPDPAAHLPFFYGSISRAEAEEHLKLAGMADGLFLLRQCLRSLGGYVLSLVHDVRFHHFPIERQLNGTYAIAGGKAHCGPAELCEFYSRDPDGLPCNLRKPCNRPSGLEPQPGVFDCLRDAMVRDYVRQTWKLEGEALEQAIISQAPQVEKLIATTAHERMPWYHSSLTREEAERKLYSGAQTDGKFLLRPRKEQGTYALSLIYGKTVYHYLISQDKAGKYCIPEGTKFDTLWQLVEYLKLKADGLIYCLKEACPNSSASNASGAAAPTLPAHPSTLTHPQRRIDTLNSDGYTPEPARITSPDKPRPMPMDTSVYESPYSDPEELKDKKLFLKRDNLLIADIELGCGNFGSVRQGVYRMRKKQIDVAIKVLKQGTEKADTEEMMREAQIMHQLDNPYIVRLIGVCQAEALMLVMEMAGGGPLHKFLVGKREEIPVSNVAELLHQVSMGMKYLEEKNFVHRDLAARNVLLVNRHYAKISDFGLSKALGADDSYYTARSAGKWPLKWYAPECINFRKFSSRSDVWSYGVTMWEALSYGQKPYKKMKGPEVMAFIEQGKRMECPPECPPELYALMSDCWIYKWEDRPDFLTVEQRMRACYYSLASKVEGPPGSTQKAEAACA
Sequence of Fibroblast growth factor receptor 3 (Homo sapiens), P22607 [G697C] (P22607 whole entry G697C): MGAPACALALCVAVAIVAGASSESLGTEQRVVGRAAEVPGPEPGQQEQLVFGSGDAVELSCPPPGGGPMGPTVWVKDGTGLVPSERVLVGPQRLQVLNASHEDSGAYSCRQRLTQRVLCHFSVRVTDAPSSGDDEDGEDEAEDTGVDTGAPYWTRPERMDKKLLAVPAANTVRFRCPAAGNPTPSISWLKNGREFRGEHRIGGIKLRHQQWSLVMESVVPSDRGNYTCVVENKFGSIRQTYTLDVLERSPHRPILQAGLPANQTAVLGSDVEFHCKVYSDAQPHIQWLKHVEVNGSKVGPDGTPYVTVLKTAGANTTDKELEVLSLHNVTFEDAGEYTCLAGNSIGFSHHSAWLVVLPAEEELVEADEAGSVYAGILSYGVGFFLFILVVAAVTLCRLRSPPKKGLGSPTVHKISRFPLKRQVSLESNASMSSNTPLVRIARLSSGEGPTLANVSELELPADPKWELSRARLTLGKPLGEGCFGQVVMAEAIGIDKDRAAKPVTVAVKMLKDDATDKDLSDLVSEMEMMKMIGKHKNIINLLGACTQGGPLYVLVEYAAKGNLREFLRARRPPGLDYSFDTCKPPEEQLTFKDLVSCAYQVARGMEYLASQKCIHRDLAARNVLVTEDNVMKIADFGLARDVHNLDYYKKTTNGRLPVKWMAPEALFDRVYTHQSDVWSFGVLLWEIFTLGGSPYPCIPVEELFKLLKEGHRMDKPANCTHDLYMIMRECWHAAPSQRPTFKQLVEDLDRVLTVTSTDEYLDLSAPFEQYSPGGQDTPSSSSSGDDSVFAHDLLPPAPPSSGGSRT
Sequence of Activin receptor type-1B (Homo sapiens) (P36896 whole entry): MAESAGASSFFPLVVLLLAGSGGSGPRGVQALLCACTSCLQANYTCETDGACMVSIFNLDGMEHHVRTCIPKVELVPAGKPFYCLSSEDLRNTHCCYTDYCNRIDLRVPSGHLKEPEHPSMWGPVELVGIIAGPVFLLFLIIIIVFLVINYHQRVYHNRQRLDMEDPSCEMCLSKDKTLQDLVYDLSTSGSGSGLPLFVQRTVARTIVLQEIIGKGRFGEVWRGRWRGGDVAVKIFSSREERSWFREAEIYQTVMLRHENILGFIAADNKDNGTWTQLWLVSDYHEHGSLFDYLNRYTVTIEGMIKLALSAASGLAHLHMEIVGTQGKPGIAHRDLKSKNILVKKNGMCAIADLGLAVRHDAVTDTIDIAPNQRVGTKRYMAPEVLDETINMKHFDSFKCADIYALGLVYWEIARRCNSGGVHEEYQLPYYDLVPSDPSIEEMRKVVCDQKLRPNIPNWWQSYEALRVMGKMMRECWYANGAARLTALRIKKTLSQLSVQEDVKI

## NS(=O)(=O)c1cc(NC(=O)C2(c3ccccc3Cl)CC2)ccc1Oc1cccc(Cl)c1 [BAY-207]
[1]
  residual activity: 69%
[2]
  residual activity: 88%
[3]
  residual activity: 89%
[4]
  residual activity: 96%
[5]
  residual activity: 85%
[6]
  residual activity: 85%
[7]
  residual activity: 90%
[8]
  residual activity: 70%
[9]
  residual activity: 94%
[10]
  residual activity: 85%
[11]
  residual activity: 81%
[12]
  residual activity: 100%
[13]
  residual activity: 100%
[14]
  residual activity: 87%
[15]
  residual activity: 83%
[16]
  residual activity: 100%
[17]
  residual activity: 100%
[18]
  residual activity: 100%
[19]
  residual activity: 89%
[20]
  residual activity: 70%
[21]
  residual activity: 79%
[22]
  residual activity: 69%
[23]
  residual activity: 100%
[24]
  residual activity: 69%
[25]
  residual activity: 73%
[26]
  residual activity: 94%
[27]
  residual activity: 100%
[28]
  residual activity: 83%
[29]
  residual activity: 62%
[30]
  residual activity: 81%
[31]
  residual activity: 54%
[32]
  residual activity: 100%
[33]
  residual activity: 98%
[34]
  residual activity: 71%
[35]
  residual activity: 93%
[36]
  residual activity: 93%
[37]
  residual activity: 100%
[38]
  residual activity: 64%
[39]
  residual activity: 100%
[40]
  residual activity: 88%
[41]
  residual activity: 100%
[42]
  residual activity: 80%
[43]
  residual activity: 100%
[44]
  residual activity: 100%
[45]
  inhibition: 82%

## NS(=O)(=O)c1cc(NC(=O)Cc2ccccc2)ccc1Oc1cccc(Cl)c1 [BAY-1797]
[1]
  residual activity: 76%
[2]
  residual activity: 75%
[3]
  residual activity: 98%
[4]
  residual activity: 95%
[5]
  residual activity: 100%
[6]
  residual activity: 91%
[7]
  residual activity: 92%
[8]
  residual activity: 71%
[9]
  residual activity: 99%
[10]
  residual activity: 94%
[11]
  residual activity: 100%
[12]
  residual activity: 100%
[13]
  residual activity: 98%
[14]
  residual activity: 96%
[15]
  residual activity: 73%
[16]
  residual activity: 100%
[17]
  residual activity: 86%
[18]
  residual activity: 80%
[19]
  residual activity: 54%
[20]
  residual activity: 69%
[21]
  residual activity: 87%
[22]
  residual activity: 74%
[23]
  residual activity: 51%
[24]
  residual activity: 65%
[25]
  residual activity: 87%
[26]
  residual activity: 100%
[27]
  residual activity: 72%
[28]
  residual activity: 100%
[29]
  residual activity: 100%
[30]
  residual activity: 100%
[31]
  residual activity: 100%
[32]
  residual activity: 91%
[33]
  residual activity: 93%
[34]
  residual activity: 83%
[35]
  residual activity: 81%
[36]
  residual activity: 94%
[37]
  residual activity: 89%
[38]
  residual activity: 87%
[39]
  residual activity: 73%
[40]
  residual activity: 87%
[41]
  residual activity: 87%
[42]
  residual activity: 67%
[43]
  residual activity: 100%
[44]
  residual activity: 87%
[45]
  inhibition: 59.5%

— ChEMBL document CHEMBL4507265 (2021)
